Experimental data reported in article PMC6934184, “Selective DNA-PKcs inhibition extends the therapeutic index of localized radiotherapy and chemotherapy” (The Journal of Clinical Investigation, 2019).

System: FLT3 ITD
Assay: SelectScreen LanthaScreen
Type: binding
Details: 1 µM
Procedure, shortened: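 Percent values come from Thermo SelectScreen profiling of NU5455, combining activity and binding assays. CSF1R was run in Z'LYTE format at Km app ATP, and CAMK1 in Adapta format with ATP listed at 10.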

## CN(C(=O)CN1CCOCC1)c1ccc2sc3c(-c4cccc5c(=O)cc(N6CC7CCC(C6)O7)oc45)cccc3c2c1 [NU5455]
  % displacement: -11.6%
